For this assay, the target named is Y78F hTTR mutant (Homo sapiens, UniProt P02766, Y98F). Briefly: turbidimetric test of amyloidogenesis (fibril formation) inhibiting activity in vitro. Format: biochemical. As to conditions: for RA (%): % reduction of the rate of aggregation at high inhibitor concentration: RA(%)=(1−A/(A+B))·100, compared with the rate in the absence of inhibitor; for pIC50: inhibitor concentration at which the aggregation was half that in the absence of inhibitor, 0 to 40 μM inhibitor, 37° C., acid-induced (dilution buffer pH 4.2); for Ψ: initial slope of curve v0 versus [I]: sensitivity of the aggregation process to the inhibitor, higher = greater inhibiting effect. The protocol:
The compounds to be tested as inhibitors were dissolved in DMSO at a concentration of 1.5 mM. The working solution was prepared by 1 to 4 dilution of the previous solution in a water/DMSO mixture (2:1). […] The incubation buffer was 10 mM sodium phosphate, 100 mM potassium chloride, 1 mM EDTA, […]. The dilution buffer was 400 mM sodium acetate, 100 mM potassium chloride, 1 mM EDTA, pH 4.2. The test protocol for an inhibitor was as follows: 20 μl of the protein solution was dispensed in 7 wells of a 96-well microplate. Different volumes of the inhibitor working solution were added to each of the wells to obtain end concentrations of 0 to 40 μM. Incubation buffer was then added to each well up to an end volume of 100 μl. The microplate was incubated at 37° C. in the microplate reader provided with thermostatting and stirring. Incubation proceeded for 30 min at 37° C. with stirring for 15 seconds every minute. 100 μl of dilution buffer was then added to every well, and the mixture was incubated at 37° C. with stirring for 15 seconds every minute in the microplate reader and absorbance was monitored at 330 nm for 1 hour 30 minutes at intervals of 1 minute. The data of absorbance versus time for every well were collected and analysed with the Microsoft Excel program. All tests were done in duplicate.
1.—Initial fibril formation rate. From the absorbance readings at 330 nm with the incubation time for every well, the initial fibril formation rate was calculated as the slope of the initial linear portion of the curve. Thus, the aggregation rate was obtained at every inhibitor concentration. 2.—Aggregation rate versus inhibitor concentration.
The adjusted parameters were: A (in units of absorbance per hour), residual aggregation rate at high inhibitor concentration; B (in units of absorbance per hour), amplitude or maximum reduction of the aggregation rate; and C (in μM^−1) the exponential constant. A+B was the aggregation rate in the absence of inhibitor (maximum aggregation rate). From these parameters, other parameters were extracted that characterised every inhibitor with regard to its capacity and effectiveness in inhibiting fibril formation: • IC50: inhibitor concentration (μM) at which the aggregation was half that in the absence of inhibitor; • Ψ: initial slope of curve v0 versus [I], which reflected the sensitivity of the aggregation process to the inhibitor.

A word on the pIC50: it is −log10 of the IC50, conventionally taken in molar units.

pIC50: −log10 of the molar value.

Regarding `NC(=O)c1cc(-c2ccc(F)cc2F)cc(I)c1O` [Iododiflunisalamide, 5-(2,4-difluorophenyl)-3-iodo-salicylamide], the “RA (%): % reduction of the rate of aggregation at high inhibitor concentration” value is 84%, the pIC50 is 4.93 and the “Ψ: initial slope of curve v0 versus [I]” value turned out to be 0.041 UA · hr^−1 · μM^−1.

On to `COC(=O)c1cc(-c2ccc(F)cc2F)cc(I)c1O` [Iododiflunisalmethyl ester, methyl 5-(2,4-difluorophenyl)-3-iodo-salicylate], for which the “RA (%): % reduction of the rate of aggregation at high inhibitor concentration” value came to 98%, the pIC50 is 4.78 and the “Ψ: initial slope of curve v0 versus [I]” value was 0.027 UA · hr^−1 · μM^−1.

Regarding “N-[5-(2,4-difluorophenyl)-3-iodo-salicyloyl]glycine [Iododiflunisalglycine]”, the “RA (%): % reduction of the rate of aggregation at high inhibitor concentration” value is reported as 100%, the pIC50 is 4.95 and the “Ψ: initial slope of curve v0 versus [I]” value amounted to 0.040 UA · hr^−1 · μM^−1.

Take `O=C(O)c1cc(-c2ccc(F)cc2F)ccc1O` [Diflunisal, 5-(2,4-difluorophenyl)salicylic acid]: the “RA (%): % reduction of the rate of aggregation at high inhibitor concentration” value amounted to 84% and the “Ψ: initial slope of curve v0 versus [I]” value came out at 0.036 UA · hr^−1 · μM^−1.

For the compound `O=C(O)CNC(=O)c1cc(-c2ccc(F)cc2F)ccc1O` [Diflunisal glycine], the “RA (%): % reduction of the rate of aggregation at high inhibitor concentration” value was found to be 28%, the pIC50 was less than 4.00 and the “Ψ: initial slope of curve v0 versus [I]” value is listed as 0.011 UA · hr^−1 · μM^−1.

On to `COC(=O)c1cc(-c2ccc(F)cc2F)ccc1O` [Diflunisal methylester], for which the “RA (%): % reduction of the rate of aggregation at high inhibitor concentration” value came to 24%, the pIC50 was less than 4.00 and the “Ψ: initial slope of curve v0 versus [I]” value was determined as 0.011 UA · hr^−1 · μM^−1.

As to `NC(=O)c1cc(-c2ccc(F)cc2F)ccc1O` [Diflunisal amide], the “RA (%): % reduction of the rate of aggregation at high inhibitor concentration” value was 10%, the pIC50 was less than 4.00 and the “Ψ: initial slope of curve v0 versus [I]” value is on record as 0.009 UA · hr^−1 · μM^−1.

Values taken from US7265245B2, “Compounds useful for the treatment of diseases associated with the formation of amyloid fibrils” (Innovaprotean, S.L, priority 2003, dated 2007).
